# Test results reported in US10633407B2, “14-membered ketolides and methods of their preparation and use” (President and Fellows of Harvard College, priority 2014, dated 2020).
# Like-named read-outs stand apart in the source and are kept apart here.
# How the values were obtained:
# Assay in all cases: CLSI broth dilution MIC determination
# Assay type in all cases: cell-based
# [1] = test system: P. aeruginosa MP-8 PAO1:mex (mex-oprM-deletion); conditions: Pseudomonas aeruginosa, PAO1
# K. pneumoniae ATCC 10031 = test system: K. pneumoniae ATCC 10031
# P. aeruginosa ATCC 27853 = test system: P. aeruginosa ATCC 27853
# [2] = test system: E. coli MP-532 clinical-cErmB; conditions: Escherichia coli
# Excerpt: (§1) MIC data was collected for the novel macrolides that this platform has produced against over 21 unique strains of B. subtilis, E. coli, S. aureus, S. pneumoniae, and H. influenzae, including several multidrug-resistant strains, with a special focus on macrolide resistant mechanisms (vide supra). Azithromycin (Azithro) and Solithromycin (Solithro) were included as a control macrolides in many cases. CLSI standard procedures for broth dilution MIC determination were used. […] These genotypes can be constitutive or inducible.
# [3] = test system: S. aureus (MRSA) MP-513 ST-228 cErm (Clinical-cErm); conditions: Staphylococcus aureus, read-out: MIC
# Excerpt: as §1
# S. aureus ATCC 29213 = test system: S. aureus ATCC 29213
# Excerpt: as §1
# [4] = test system: E. coli MP-9 ATCC25922:tolC; conditions: Escherichia coli, ATCC25922
# Excerpt: as §1
# [5] = test system: S. aureus MP-17 ATCCBAA-977 (BAA 977 iErm); conditions: Staphylococcus aureus; S. aureus MP-17, ATCCBAA-977, iErm; read-out: MIC
# Excerpt: as §1
# E. coli ATCC 25922 = test system: E. coli ATCC 25922
# Excerpt: as §1
# E. coli MP-541 clinical = conditions: Escherichia coli, MP541CLINICAL, read-out: MIC
# Excerpt: as §1
# S. aureus MRSA: USA300 = test system: S. aureus MRSA: USA300
# Excerpt: as §1
# A. baumannii ATCC 19606 = test system: A. baumannii ATCC 19606
# [6] = test system: A. baumannii MP-576 Clinical-MDR; conditions: Acinetobacter baumannii, read-out: MIC
# [7] = test system: K. pneumoniae MP-546 Clinical-MDR; conditions: Klebsiella pneumoniae, read-out: MIC
# [8] = test system: K. pneumoniae MP-548 clinical; conditions: Klebsiella pneumoniae, MP548CLINICAL, read-out: MIC
# P. aeruginosa MP-7 PAO1 = conditions: Pseudomonas aeruginosa, read-out: MIC
# [9] = test system: A. baumannii MP-577 Clinical-AZT low; conditions: Acinetobacter baumannii, read-out: MIC
# [10] = test system: S. pyogenes Macrolide-resistant; conditions: S. pyogenes Macrolide-resistant; Gram-positive
# K. pneumoniae KPC-2 = conditions: Gram-negative
# [11] = test system: E. faecalis Vancomycin-resistant; conditions: E. faecalis Vancomycin-resistant; Gram-positive
# K. pneumoniae SHV-12 = conditions: Gram-negative
# H. influenzae ATCC49247 = conditions: Gram-negative
# Excerpt: as §1
# E. coli TEM-1 = conditions: E. coli TEM-1; Gram-negative
# Excerpt: as §1
# S. pneumoniae ATCC 49619 = conditions: S. pneumoniae ATCC 49619; Gram-positive
# Excerpt: as §1
# [12] = test system: S. pneumoniae mef A genotype (second strain so labelled); conditions: Gram-positive
# Excerpt: as §1
# E. coli NDM-1 = conditions: Gram-negative
# Excerpt: as §1
# S. aureus USA600, GISA = conditions: S. aureus USA600, GISA; Gram-positive
# Excerpt: as §1
# S. aureus erm A genotype = conditions: S. aureus erm A genotype; Gram-positive
# Excerpt: as §1
# E. coli CTX-M-14 = conditions: Gram-negative
# Excerpt: as §1
# K. pneumoniae TEM-10 = conditions: Gram-negative
# Excerpt: as §1
# S. aureus MRSA: USA100 = conditions: S. aureus MRSA: USA100; Gram-positive
# Excerpt: as §1
# E. faecalis ATCC 29212 = conditions: E. faecalis ATCC 29212; Gram-positive
# [13] = test system: A. baumannii chromosomal class C; conditions: Gram-negative
# [14] = test system: P. aeruginosa HPA101-1477; conditions: Gram-negative
# A. baumannii IMP-4 = conditions: Gram-negative
# [15] = test system: H. influenzae Erythro >4, Azithro 1; conditions: H. influenzae Erythro >4, Azithro 1; Gram-negative
# Excerpt: MIC data was collected for the novel macrolides that this platform has produced against over 21 unique strains of B. subtilis, E. coli, S. aureus, S. pneumoniae, and H. influenzae, including several multidrug-resistant strains, with a special focus on macrolide resistant mechanisms (vide supra). […] CLSI standard procedures for broth dilution MIC determination were used. […] These genotypes can be constitutive or inducible.
# S. pyogenes ATCC 19615 = conditions: S. pyogenes ATCC 19615; Gram-positive
# [16] = test system: A. baumannii imipenem-resistant; conditions: Gram-negative
# [17] = Klebsiella pneumoniae, ATCC10031, K. pneumoniae ATCC 10031 (MP-14), read-out: MIC
# [18] = Pseudomonas aeruginosa, ATCC27853, P. aeruginosa ATCC 27853 (MP-3), read-out: MIC
# [19] = Staphylococcus aureus, ATCC29213, S. aureus ATCC 29213 (MP-12), read-out: MIC
# [20] = Escherichia coli, ATCC25922, E. coli ATCC 25922 (MP-4), read-out: MIC
# [21] = Staphylococcus aureus, S. aureus MRSA: USA300 (MP-549, msr(a)), read-out: MIC
# [22] = Acinetobacter baumannii, ATCC19606, A. baumannii ATCC 19606 (MP-15), read-out: MIC
smiles,measurement,setting,value
CC[C@H]1OC(=O)[C@@](C)(F)C(=O)[C@H](C)[C@@H](O[C@@H]2OC(C)CC(N(C)C)C2O)[C@](C)(OC)C[C@@H](C)C(=O)[C@H](C)[C@H]2N(CC#CCn3cc(-c4cnccn4)nn3)C(=O)O[C@]12C (some centres unmarked) [FSM-22746],MIC,[1],16 µg/mL
same,MIC,K. pneumoniae ATCC 10031; [17],8 µg/mL
same,MIC,P. aeruginosa ATCC 27853; [18],> 64 µg/mL
same,MIC,[2],> 64 µg/mL
same,MIC,[3],> 64 µg/mL
same,MIC,S. aureus ATCC 29213; [19],0.25 µg/mL
same,MIC,[4],4 µg/mL
same,MIC,[5],0.25 µg/mL
same,MIC,E. coli ATCC 25922; [20],32 µg/mL
same,MIC,E. coli MP-541 clinical,64 µg/mL
same,MIC,S. aureus MRSA: USA300; [21],0.5 µg/mL
same,MIC,A. baumannii ATCC 19606; [22],16 µg/mL
same,MIC,[6],> 64 µg/mL
same,MIC,[7],> 64 µg/mL
same,MIC,[8],> 64 µg/mL
same,MIC,P. aeruginosa MP-7 PAO1,> 64 µg/mL
same,MIC,[9],64 µg/mL
CC[C@H]1OC(=O)[C@@](C)(F)C(=O)[C@H](C)[C@@H](O[C@@H]2OC(C)CC(N(C)C)C2O)[C@](C)(OC)C[C@@H](C)C(=O)[C@H](C)[C@H]2N(CC#CCn3cc(-c4cccnn4)nn3)C(=O)O[C@]12C (some centres unmarked) [FSM-130217],MIC,[1],16 µg/mL
same,MIC,K. pneumoniae ATCC 10031; [17],8 µg/mL
same,MIC,P. aeruginosa ATCC 27853; [18],> 64 µg/mL
same,MIC,[2],> 64 µg/mL
same,MIC,[3],> 64 µg/mL
same,MIC,S. aureus ATCC 29213; [19],0.25 µg/mL
same,MIC,[4],4 µg/mL
same,MIC,[5],0.25 µg/mL
same,MIC,E. coli ATCC 25922; [20],32 µg/mL
same,MIC,E. coli MP-541 clinical,32 µg/mL
same,MIC,S. aureus MRSA: USA300; [21],0.25 µg/mL
same,MIC,A. baumannii ATCC 19606; [22],16 µg/mL
same,MIC,[6],> 64 µg/mL
same,MIC,[7],> 64 µg/mL
same,MIC,[8],> 64 µg/mL
same,MIC,P. aeruginosa MP-7 PAO1,> 64 µg/mL
same,MIC,[9],32 µg/mL
CC[C@H]1OC(=O)[C@@](C)(F)C(=O)[C@H](C)[C@@H](O[C@@H]2OC(C)CC(N(C)C)C2O)[C@](C)(OC)C[C@@H](C)C(=O)[C@H](C)[C@H]2N(CC#CCn3cc(-c4cc(N)nc(N)n4)nn3)C(=O)O[C@]12C (some centres unmarked) [FSM-22742],MIC,[1],8 µg/mL
same,MIC,K. pneumoniae ATCC 10031; [17],4 µg/mL
same,MIC,P. aeruginosa ATCC 27853; [18],64 µg/mL
same,MIC,[2],> 64 µg/mL
same,MIC,[3],> 64 µg/mL
same,MIC,S. aureus ATCC 29213; [19],0.5 µg/mL
same,MIC,[4],2 µg/mL
same,MIC,[5],1 µg/mL
same,MIC,E. coli ATCC 25922; [20],16 µg/mL
same,MIC,E. coli MP-541 clinical,16 µg/mL
same,MIC,S. aureus MRSA: USA300; [21],1 µg/mL
same,MIC,A. baumannii ATCC 19606; [22],16 µg/mL
same,MIC,[6],> 64 µg/mL
same,MIC,[7],> 64 µg/mL
same,MIC,[8],64 µg/mL
same,MIC,P. aeruginosa MP-7 PAO1,64 µg/mL
same,MIC,[9],32 µg/mL
CC[C@H]1OC(=O)[C@@](C)(F)C(=O)[C@H](C)[C@@H](O[C@@H]2OC(C)CC(N(C)C)C2O)[C@](C)(OC)C[C@@H](C)C(=O)[C@H](C)[C@H]2N(CC#CCn3cc(-c4cccc(F)n4)nn3)C(=O)O[C@]12C (some centres unmarked) [FSM-100627],MIC,[1],4 µg/mL
same,MIC,K. pneumoniae ATCC 10031; [17],2 µg/mL
same,MIC,P. aeruginosa ATCC 27853; [18],64 µg/mL
same,MIC,[2],> 64 µg/mL
same,MIC,[3],32 µg/mL
same,MIC,S. aureus ATCC 29213; [19],0.06 µg/mL
same,MIC,[4],1 µg/mL
same,MIC,[5],0.06 µg/mL
same,MIC,E. coli ATCC 25922; [20],16 µg/mL
same,MIC,E. coli MP-541 clinical,8 µg/mL
same,MIC,S. aureus MRSA: USA300; [21],0.125 µg/mL
same,MIC,A. baumannii ATCC 19606; [22],8 µg/mL
same,MIC,[6],> 64 µg/mL
same,MIC,[7],64 µg/mL
same,MIC,[8],32 µg/mL
same,MIC,P. aeruginosa MP-7 PAO1,64 µg/mL
same,MIC,[9],32 µg/mL
CC[C@H]1OC(=O)[C@@](C)(F)C(=O)[C@H](C)[C@@H](O[C@@H]2OC(C)CC(N(C)C)C2O)[C@](C)(OC)C[C@@H](C)C(=O)[C@H](C)[C@H]2N(C/C=C/Cn3cc(-c4cccc(N)n4)nn3)C(=O)O[C@]12C (some centres unmarked) [FSM-100407],MIC,"K. pneumoniae ATCC 10031; K. pneumoniae ATCC 10031, Gram-negative",4 µg/mL
same,MIC,[10],< 0.0312 µg/mL
same,MIC,K. pneumoniae KPC-2,> 32 µg/mL
same,MIC,[11],16 µg/mL
same,MIC,K. pneumoniae SHV-12,> 32 µg/mL
same,MIC,"P. aeruginosa ATCC 27853; P. aeruginosa ATCC 27853, Gram-negative",32 µg/mL
same,MIC,H. influenzae ATCC49247,1 µg/mL
same,MIC,E. coli TEM-1,> 32 µg/mL
same,MIC,S. pneumoniae ATCC 49619,< 0.0312 µg/mL
same,MIC,[12],< 0.0312 µg/mL
same,MIC,E. coli NDM-1,> 32 µg/mL
same,MIC,"S. aureus ATCC 29213; S. aureus ATCC 29213, Gram-positive",< 0.0312 µg/mL
same,MIC,"S. aureus USA600, GISA",> 32 µg/mL
same,MIC,S. aureus erm A genotype,> 32 µg/mL
same,MIC,"E. coli ATCC 25922; E. coli ATCC 25922, Gram-negative",16 µg/mL
same,MIC,E. coli CTX-M-14,> 32 µg/mL
same,MIC,"S. aureus MRSA: USA300; S. aureus MRSA: USA300, Gram-positive",0.5 µg/mL
same,MIC,K. pneumoniae TEM-10,32 µg/mL
same,MIC,S. aureus MRSA: USA100,> 32 µg/mL
same,MIC,E. faecalis ATCC 29212,< 0.0312 µg/mL
same,MIC,"A. baumannii ATCC 19606; A. baumannii ATCC 19606, Gram-negative",8 µg/mL
same,MIC,[13],8 µg/mL
same,MIC,[14],> 32 µg/mL
same,MIC,A. baumannii IMP-4,> 32 µg/mL
same,MIC,[15],1 µg/mL
same,MIC,S. pyogenes ATCC 19615,< 0.0312 µg/mL
same,MIC,[16],8 µg/mL
